Values of other authors as cited in patent US20090180950A1, “Polychromatic, diversely-sized particles for angiography” (The Trustees of Columbia University in the City of New York, priority 2006, published 2009).

Tested on: plasma protein
Conditions: fluorescein

O=C1OC2(c3ccc(O)cc3Oc3cc(O)ccc32)c2ccccc21 [fluorescein, Sodium fluorescein]
bound to plasma protein (fraction bound): 70-80%
unbound (free) fraction (fraction not bound to plasma protein): 20-30%
